From US20240261274A1, “TREATMENT OF MYC-DRIVEN CANCERS WITH GSPT1 DEGRADERS” (MONTE ROSA THERAPEUTICS, INC., priority 2021, published 2024) come the findings set out here.

Assay type in all cases: cell-based
Holding throughout (details): MM1 S cells, 0.3, 3 and 30 μM, 6 hours

The target of one assay is GSPT1 (Homo sapiens, UniProt P15170+Q96SW2). Kind of assay: Selectivity western blot assay in MM1 S cells, GSPT1. Also on record: endogenous in cells; host or cells: MM1 S (ATCC CRL-2974). As to the method:
(§1) MM1 S cells were purchased from ATCC (cat. Number CRL-2974), sub-cultured in 90% RPMI 1640 with 10% FBS, supplemented with 1×P/S and incubated at 37° C., 5% CO2. Compounds were stored as 10 mM DMSO stock. For the assay, MM1 S cells (3 million cells/well) were plated in 6-well plates and incubated over night. Cells were treated with respective compounds using a serial dilution: 0.3 μM, 3 μM and 30 μM as well as a vehicle only (DMSO) control for 6 hours. Media with suspension cells was subsequently transferred to 15 mL conical tubes, wells rinsed twice with ice-cold PBS and merged with cell suspension in respective 15 mL conical tube. Cells were spinned down, supernatant aspirated, pellets resuspended in ice-cold PBS and transferred to microtubes. Cells were spinned down, supernatant aspirated and pellets resuspended in 120 μL RIPA lysis buffer supplemented with protease and phosphatase inhibitors. Cell lysates were incubated on ice for 20 minutes followed by centrifugation at >20,000×g for 5 min. Supernatants were transferred to fresh microtubes and stored at −80° C. Total protein concentration was determined using a BCA assay with a BSA standard curve and concentration of all samples was adjusted to 1 mg/mL. 25 μL 4×LDS sample buffer supplemented with 100 mM DTT was added to 75 μL sample. Samples were centrifuged (8,000×g, 1 min) and incubated at 95° C. for 5 min followed by another centrifugation step (8,000×g, 1 min). 20 μL of each sample was loaded on a 4-12% gel alongside a protein molecular weight marker. Gels were run in the presence of MOPS buffer at 80 Volts for 30 min, followed by 120 Volts for 1.5 h and proteins subsequently transferred onto nitrocellulose membranes at 20 Volts for 7 min using an iBlot2 Gel Transfer Device. Membranes were then cut horizontally into two pieces, covering 80-50 kDa and 50-25 kDa. Blocking the membranes was performed by gently shaking in 5% (w/v) skim milk in TSB-T for 1 hr at room temperature. All primary antibodies were used at a 1/1000 in 5% (w/v) BSA dissolved in TBST and incubated with membranes over night at 4° C. After three washes with 1×TBST for 5 min, HRP-coupled secondary antibodies diluted in 5% (w/v) BSA/TBST (Goat Anti-Rb IgG, dil. 1/10,000; Goat Anti-Mouse IgG, dil. 1/5000) were added for 1 hr at room temperature. After three washes with 1×TBST (5 minutes each), membranes were incubated with ECL reagent for 1 min at room temperature. Chemiluminescence signals were then detected using a LAS-4000 system with default settings and signals quantified using Image Studio Lite software (version 5.2). Membrane parts previously incubated with antibody against CK1 alpha were stripped off antibodies by incubating with stripping buffer for 30 minutes followed by three washed with TBST (5 min each), blocking with 5% (w/v) skim milk for 1 hr, and incubation with primary antibody against uGAPDH overnight at 4° C. Subsequent washes, incubation with secondary antibody and signal acquisition were performed as described above.

A further assay has as its target T1, IKZF3 (Homo sapiens, UniProt Q96SW2+Q9UKT9).
T1 construct: endogenous in cells; host or cells: MM1 S (ATCC CRL-2974)
Kind of assay: Selectivity western blot assay in MM1 S cells, IKZF3. Also on record: key: A represents no degradation observed at 30 μM; B represents trace degradation at 30 μM (below 20%); C represents weak degradation at 30 μM (below 50%); D represents degradation at 30 μM (>90%); E represents degradation at 3 μM (>90%); F represents degradation at 0.3 μM (>90%). On the procedure:
as §1

The target in another assay is T2, CK1alpha (Homo sapiens, UniProt P48729+Q96SW2).
T2 construct: endogenous in cells; host or cells: MM1 S (ATCC CRL-2974)
Kind of assay: Selectivity western blot assay in MM1 S cells, CK1alpha. Also on record: key: A represents no degradation observed at 30 μM; B represents trace degradation at 30 μM (below 20%); C represents weak degradation at 30 μM (below 50%); D represents degradation at 30 μM (>90%); E represents degradation at 3 μM (>90%); F represents degradation at 0.3 μM (>90%). As to the method: as §1

In a further assay the target is T3, IKZF1 (Homo sapiens, UniProt Q13422+Q96SW2).
T3 construct: endogenous in cells; host or cells: MM1 S (ATCC CRL-2974)
Nature of the assay: Selectivity western blot assay in MM1 S cells, IKZF1. Set-up: key: A represents no degradation observed at 30 μM; B represents trace degradation at 30 μM (below 20%); C represents weak degradation at 30 μM (below 50%); D represents degradation at 30 μM (>90%); E represents degradation at 3 μM (>90%); F represents degradation at 0.3 μM (>90%). On the procedure: as §1
(A western blot detects proteins with antibodies after separation by electrophoresis.)

The next assay deals with T4, ZFP91 (Homo sapiens, UniProt Q96JP5+Q96SW2).
T4 construct: endogenous in cells; host or cells: MM1 S (ATCC CRL-2974)
Kind of assay: Selectivity western blot assay in MM1 S cells, ZFP91. Also on record: key: A represents no degradation observed at 30 μM; B represents trace degradation at 30 μM (below 20%); C represents weak degradation at 30 μM (below 50%); D represents degradation at 30 μM (>90%); E represents degradation at 3 μM (>90%); F represents degradation at 0.3 μM (>90%). On the procedure:
as §1

Structures are written as SMILES.

T3 sequence (Q13422 whole entry): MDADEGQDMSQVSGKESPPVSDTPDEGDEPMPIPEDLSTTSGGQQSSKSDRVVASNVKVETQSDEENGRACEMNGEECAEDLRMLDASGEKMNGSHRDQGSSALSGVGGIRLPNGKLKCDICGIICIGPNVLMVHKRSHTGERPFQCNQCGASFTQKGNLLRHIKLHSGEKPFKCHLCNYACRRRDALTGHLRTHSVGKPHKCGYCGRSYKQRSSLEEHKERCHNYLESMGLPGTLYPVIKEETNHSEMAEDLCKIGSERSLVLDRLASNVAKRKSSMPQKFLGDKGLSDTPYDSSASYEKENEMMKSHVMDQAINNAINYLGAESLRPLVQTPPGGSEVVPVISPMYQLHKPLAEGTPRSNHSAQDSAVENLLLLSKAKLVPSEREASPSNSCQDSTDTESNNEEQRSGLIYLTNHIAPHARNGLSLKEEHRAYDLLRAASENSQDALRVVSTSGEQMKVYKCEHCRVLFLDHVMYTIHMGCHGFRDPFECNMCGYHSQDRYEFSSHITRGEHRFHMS
T3 sequence (Q96SW2 whole entry): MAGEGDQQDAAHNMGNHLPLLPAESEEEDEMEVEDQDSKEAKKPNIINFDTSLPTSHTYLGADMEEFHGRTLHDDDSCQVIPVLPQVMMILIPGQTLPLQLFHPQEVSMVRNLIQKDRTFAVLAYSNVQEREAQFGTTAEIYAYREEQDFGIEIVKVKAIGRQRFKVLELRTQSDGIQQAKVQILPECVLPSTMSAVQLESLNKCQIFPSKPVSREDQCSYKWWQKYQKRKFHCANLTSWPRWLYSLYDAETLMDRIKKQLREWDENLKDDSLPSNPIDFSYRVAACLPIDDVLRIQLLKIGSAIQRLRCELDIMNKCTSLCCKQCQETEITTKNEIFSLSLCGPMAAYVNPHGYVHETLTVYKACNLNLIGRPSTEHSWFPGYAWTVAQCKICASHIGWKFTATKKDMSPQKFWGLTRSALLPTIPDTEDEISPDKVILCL
T3 sequence (Q16531 whole entry partner): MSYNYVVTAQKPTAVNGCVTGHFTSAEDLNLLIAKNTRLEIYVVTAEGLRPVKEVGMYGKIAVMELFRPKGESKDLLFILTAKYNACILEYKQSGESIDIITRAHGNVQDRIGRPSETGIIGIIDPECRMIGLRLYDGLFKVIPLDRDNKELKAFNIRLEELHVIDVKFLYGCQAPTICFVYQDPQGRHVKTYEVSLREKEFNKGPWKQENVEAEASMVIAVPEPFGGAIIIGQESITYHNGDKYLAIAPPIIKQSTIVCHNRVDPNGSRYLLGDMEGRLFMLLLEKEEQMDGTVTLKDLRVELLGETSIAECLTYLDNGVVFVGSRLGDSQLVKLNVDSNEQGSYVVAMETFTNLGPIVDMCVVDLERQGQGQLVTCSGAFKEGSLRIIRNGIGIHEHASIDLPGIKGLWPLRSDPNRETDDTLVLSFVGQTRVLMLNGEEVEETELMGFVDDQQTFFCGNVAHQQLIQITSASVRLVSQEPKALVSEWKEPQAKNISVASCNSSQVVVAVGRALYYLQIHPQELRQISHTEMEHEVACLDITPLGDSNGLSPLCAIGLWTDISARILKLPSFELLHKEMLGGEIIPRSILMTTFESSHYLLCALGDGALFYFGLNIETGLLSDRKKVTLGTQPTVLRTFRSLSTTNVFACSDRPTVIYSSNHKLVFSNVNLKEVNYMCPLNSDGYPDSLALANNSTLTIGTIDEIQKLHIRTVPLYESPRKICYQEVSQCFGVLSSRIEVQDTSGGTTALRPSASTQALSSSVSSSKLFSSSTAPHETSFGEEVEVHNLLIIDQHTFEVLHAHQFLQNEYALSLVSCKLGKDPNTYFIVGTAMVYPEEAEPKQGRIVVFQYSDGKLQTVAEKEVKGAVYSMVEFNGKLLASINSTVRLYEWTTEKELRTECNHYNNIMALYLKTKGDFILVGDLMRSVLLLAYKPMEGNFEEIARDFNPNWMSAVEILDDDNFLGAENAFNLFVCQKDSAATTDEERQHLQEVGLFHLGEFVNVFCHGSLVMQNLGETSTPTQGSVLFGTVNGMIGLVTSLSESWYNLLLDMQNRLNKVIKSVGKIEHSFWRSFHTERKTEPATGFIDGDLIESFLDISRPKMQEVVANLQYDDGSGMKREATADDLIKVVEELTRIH
Chain of GSPT1 (P15170 whole entry): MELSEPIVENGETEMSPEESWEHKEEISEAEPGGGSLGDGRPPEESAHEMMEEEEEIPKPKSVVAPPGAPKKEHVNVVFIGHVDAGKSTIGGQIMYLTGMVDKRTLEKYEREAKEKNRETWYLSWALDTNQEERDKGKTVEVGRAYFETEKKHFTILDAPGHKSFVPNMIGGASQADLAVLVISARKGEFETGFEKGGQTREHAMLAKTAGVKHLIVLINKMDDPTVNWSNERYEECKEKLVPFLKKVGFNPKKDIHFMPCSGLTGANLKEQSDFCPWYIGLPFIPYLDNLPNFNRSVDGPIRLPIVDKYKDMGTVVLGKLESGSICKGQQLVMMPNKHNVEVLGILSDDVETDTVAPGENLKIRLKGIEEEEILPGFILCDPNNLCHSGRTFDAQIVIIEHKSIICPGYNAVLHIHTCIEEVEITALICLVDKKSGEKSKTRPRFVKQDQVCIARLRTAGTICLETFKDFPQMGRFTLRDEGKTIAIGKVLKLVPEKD
Chain of GSPT1 (Q96SW2 whole entry): as the sequence (Q96SW2 whole entry) above
Chain of GSPT1 (Q16531 whole entry partner): as the sequence (Q16531 whole entry partner) above
T2 sequence (P48729 whole entry): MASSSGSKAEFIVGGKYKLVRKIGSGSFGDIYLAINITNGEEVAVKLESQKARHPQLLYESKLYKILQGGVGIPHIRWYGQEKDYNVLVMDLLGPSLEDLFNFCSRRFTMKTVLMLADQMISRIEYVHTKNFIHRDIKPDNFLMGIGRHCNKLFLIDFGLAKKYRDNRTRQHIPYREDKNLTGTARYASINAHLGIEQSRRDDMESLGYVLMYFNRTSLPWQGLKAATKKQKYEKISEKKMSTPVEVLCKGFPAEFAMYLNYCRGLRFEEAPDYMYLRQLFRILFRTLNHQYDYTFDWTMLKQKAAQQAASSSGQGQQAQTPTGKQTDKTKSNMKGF
T2 sequence (Q96SW2 whole entry): as the sequence (Q96SW2 whole entry) above
T2 sequence (Q16531 whole entry partner): as the sequence (Q16531 whole entry partner) above
T4 sequence (Q96JP5 whole entry): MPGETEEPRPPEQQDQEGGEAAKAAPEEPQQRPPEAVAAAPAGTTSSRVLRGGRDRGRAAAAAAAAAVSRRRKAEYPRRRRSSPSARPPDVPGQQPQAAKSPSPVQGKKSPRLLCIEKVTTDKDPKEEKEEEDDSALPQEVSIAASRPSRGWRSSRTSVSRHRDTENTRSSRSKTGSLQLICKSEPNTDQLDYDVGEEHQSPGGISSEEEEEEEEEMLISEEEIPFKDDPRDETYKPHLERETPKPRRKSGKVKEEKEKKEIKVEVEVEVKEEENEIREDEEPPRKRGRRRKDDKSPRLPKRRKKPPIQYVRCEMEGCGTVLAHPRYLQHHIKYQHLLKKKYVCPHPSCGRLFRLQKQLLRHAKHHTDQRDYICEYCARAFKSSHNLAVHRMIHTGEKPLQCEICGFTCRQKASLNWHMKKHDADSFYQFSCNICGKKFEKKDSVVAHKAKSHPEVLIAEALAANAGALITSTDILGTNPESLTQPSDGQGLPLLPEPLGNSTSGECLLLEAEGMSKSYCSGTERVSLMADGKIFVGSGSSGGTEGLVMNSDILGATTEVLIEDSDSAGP
T4 sequence (Q96SW2 whole entry): as the sequence (Q96SW2 whole entry) above
T4 sequence (Q16531 whole entry partner): as the sequence (Q16531 whole entry partner) above
T1 sequence (Q9UKT9 whole entry): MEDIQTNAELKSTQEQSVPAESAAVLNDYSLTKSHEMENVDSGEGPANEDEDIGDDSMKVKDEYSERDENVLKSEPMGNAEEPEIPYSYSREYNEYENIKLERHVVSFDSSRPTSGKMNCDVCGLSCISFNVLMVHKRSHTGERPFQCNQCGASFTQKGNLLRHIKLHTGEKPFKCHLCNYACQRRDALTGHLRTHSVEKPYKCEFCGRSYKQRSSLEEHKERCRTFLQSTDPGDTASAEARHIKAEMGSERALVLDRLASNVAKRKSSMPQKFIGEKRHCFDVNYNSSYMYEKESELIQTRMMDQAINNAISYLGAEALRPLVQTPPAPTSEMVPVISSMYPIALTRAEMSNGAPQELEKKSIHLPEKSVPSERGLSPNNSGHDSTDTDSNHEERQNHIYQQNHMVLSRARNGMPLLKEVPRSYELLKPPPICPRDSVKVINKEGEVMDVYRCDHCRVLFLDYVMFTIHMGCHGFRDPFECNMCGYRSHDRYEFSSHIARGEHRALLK
T1 sequence (Q96SW2 whole entry): as the sequence (Q96SW2 whole entry) above
T1 sequence (Q16531 whole entry partner): as the sequence (Q16531 whole entry partner) above

In the case of `CC(C)(C)c1ccc(NC(=O)OCc2ccc3c(c2)C(=O)N(C2CCC(=O)NC2=O)C3)cn1` (centres unmarked) [Compound 243], the GSPT1 degradation result at GSPT1 is given as “F (F represents degradation at 0.3 μM (>90%))”. Further, at IKZF3, the IKZF3 degradation entry was “B (B represents trace degradation at 30 μM (below 20%))”. Moreover, the CK1alpha degradation result on CK1alpha is “C (C represents weak degradation at 30 μM (below 50%))”. Moreover, the IKZF1 degradation result at IKZF1 is recorded as “A”.
For the molecule `Cc1cc(C)c(NC(=O)NCc2ccc3c(c2)C(=O)N(C2CCC(=O)NC2=O)C3)cc1Cl` (centres unmarked) [Compound 85], the GSPT1 degradation entry at GSPT1 is “E (E represents degradation at 3 μM (>90%))”. On IKZF3, the IKZF3 degradation entry is recorded as “A”. Besides, on ZFP91, the ZFP91 degradation result is “A”. Besides, the CK1alpha degradation entry at CK1alpha is “B (B represents trace degradation at 30 μM (below 20%))”. Also, the IKZF1 degradation entry at IKZF1 was “A”.
Consider `Cc1c(Cl)cc(NC(=O)OCc2ccc3c(c2)C(=O)N(C2CCC(=O)NC2=O)C3)cc1OCCN1CCOCC1` (centres unmarked) [Compound 248], for which, on GSPT1, the GSPT1 degradation result was “F (F represents degradation at 0.3 μM (>90%))”. Also, the IKZF3 degradation result on IKZF3 is listed as “B (B represents trace degradation at 30 μM (below 20%))”. At CK1alpha, the CK1alpha degradation result is listed as “B (B represents trace degradation at 30 μM (below 20%))”. For the same molecule, the IKZF1 degradation entry on IKZF1 was “A”.
As to `O=C1CCC(N2Cc3ccc(CNC(=O)Nc4cccc(CN5CCOCC5)c4)cc3C2=O)C(=O)N1` (centres unmarked) [Compound 105], on GSPT1, the GSPT1 degradation result is recorded as “E (E represents degradation at 3 μM (>90%))”. In addition, at IKZF3, the IKZF3 degradation result is recorded as “A”. The ZFP91 degradation entry at ZFP91 was “B (B represents trace degradation at 30 μM (below 20%))”. Moreover, the CK1alpha degradation result at CK1alpha was “A”. Also, the IKZF1 degradation result on IKZF1 is “B (B represents trace degradation at 30 μM (below 20%))”.
For the molecule `CC(C)(C)c1ccc(NC(=O)OCc2ccc3c(c2)C(=O)N(C2CCC(=O)NC2=O)C3)cc1` (centres unmarked) [Compound 247], the GSPT1 degradation entry at GSPT1 is “F (F represents degradation at 0.3 μM (>90%))”. Also, the IKZF3 degradation result at IKZF3 is given as “A”. Moreover, the ZFP91 degradation result at ZFP91 is recorded as “B (B represents trace degradation at 30 μM (below 20%))”. In addition, at CK1alpha, the CK1alpha degradation result is on record as “B (B represents trace degradation at 30 μM (below 20%))”. Moreover, the IKZF1 degradation result at IKZF1 is “A”.
As to `Cc1c(Cl)cc(NC(=O)NCc2ccc3c(c2)C(=O)N(C2CCC(=O)NC2=O)C3)cc1CC1COCOC1` (centres unmarked) [Compound 132], at GSPT1, the GSPT1 degradation entry was “F (F represents degradation at 0.3 μM (>90%))”. Also, the IKZF3 degradation entry at IKZF3 is listed as “A”. Moreover, on ZFP91, the ZFP91 degradation entry is reported as “C (C represents weak degradation at 30 μM (below 50%))”. For the same molecule, the CK1alpha degradation result on CK1alpha is on record as “C (C represents weak degradation at 30 μM (below 50%))”. Further, the IKZF1 degradation entry at IKZF1 is reported as “A”.
With `O=C1CCC(N2Cc3ccc(COC(=O)Nc4ccc(-c5ccccc5)nc4)cc3C2=O)C(=O)N1` (centres unmarked) [Compound 242], the GSPT1 degradation entry at GSPT1 is “F (F represents degradation at 0.3 μM (>90%))”. Also, the IKZF3 degradation result at IKZF3 is “A”. Also, the CK1alpha degradation result at CK1alpha is given as “B (B represents trace degradation at 30 μM (below 20%))”. In addition, at IKZF1, the IKZF1 degradation entry is “A”.
Take `COc1cc(C)c(Cl)cc1NC(=O)OCc1ccc2c(c1)C(=O)N(C1CCC(=O)NC1=O)C2` (centres unmarked) [Compound 201]: the GSPT1 degradation entry on GSPT1 is on record as “F (F represents degradation at 0.3 μM (>90%))”. On IKZF3, the IKZF3 degradation entry was “B (B represents trace degradation at 30 μM (below 20%))”. Further, at ZFP91, the ZFP91 degradation entry is listed as “A”. Moreover, the CK1alpha degradation entry at CK1alpha is recorded as “B (B represents trace degradation at 30 μM (below 20%))”. Moreover, the IKZF1 degradation entry at IKZF1 was “A”.
On to `CCc1ncc(NC(=O)OCc2ccc3c(c2)C(=O)N(C2CCC(=O)NC2=O)C3)cc1C` (centres unmarked) [Compound 249], for which, at GSPT1, the GSPT1 degradation entry is listed as “F (F represents degradation at 0.3 μM (>90%))”. For the same molecule, at IKZF3, the IKZF3 degradation entry is “A”. For the same molecule, at ZFP91, the ZFP91 degradation result is reported as “B (B represents trace degradation at 30 μM (below 20%))”. Further, at CK1alpha, the CK1alpha degradation result is given as “B (B represents trace degradation at 30 μM (below 20%))”. Besides, the IKZF1 degradation entry at IKZF1 was “A”.
In the case of `Cc1ccc(NC(=O)NCc2ccc3c(c2)C(=O)N(C2CCC(=O)NC2=O)C3)c(Cl)c1Cl` (centres unmarked) [Compound 87], at GSPT1, the GSPT1 degradation result was “E (E represents degradation at 3 μM (>90%))”. Besides, the IKZF3 degradation result on IKZF3 is “A”. Besides, the ZFP91 degradation entry at ZFP91 is “A”. For the same molecule, at CK1alpha, the CK1alpha degradation result is “A”. In addition, at IKZF1, the IKZF1 degradation entry is reported as “A”.
`Cc1c(Cl)cc(NC(=O)NCc2ccc3c(c2)C(=O)N(C2CCC(=O)NC2=O)C3)cc1CN1CCOCC1` (centres unmarked) [Compound 82]: the GSPT1 degradation result on GSPT1 is listed as “F (F represents degradation at 0.3 μM (>90%))”. Moreover, the IKZF3 degradation result on IKZF3 is on record as “A”. For the same molecule, the ZFP91 degradation entry on ZFP91 is reported as “A”. The CK1alpha degradation result on CK1alpha is “A”. In addition, the IKZF1 degradation result at IKZF1 is listed as “A”.
Regarding `Cc1c(Cl)cc(NC(=O)NCc2ccc3c(c2)C(=O)N(C2CCC(=O)NC2=O)C3)cc1CN(C)C` (centres unmarked) [Compound 75], the GSPT1 degradation entry on GSPT1 was “E (E represents degradation at 3 μM (>90%))”. For the same molecule, the IKZF3 degradation entry on IKZF3 is recorded as “A”. Moreover, at ZFP91, the ZFP91 degradation entry is “A”. In addition, the CK1alpha degradation result on CK1alpha is “A”. On IKZF1, the IKZF1 degradation entry is “A”.
Turning to `Cc1ncc(NC(=O)OCc2ccc3c(c2)C(=O)N(C2CCC(=O)NC2=O)C3)cc1Cl` (centres unmarked) [Compound 206], the GSPT1 degradation entry at GSPT1 is listed as “F (F represents degradation at 0.3 μM (>90%))”. The IKZF3 degradation entry at IKZF3 was “B (B represents trace degradation at 30 μM (below 20%))”. Besides, the CK1alpha degradation entry on CK1alpha is “A”. Besides, the IKZF1 degradation entry on IKZF1 is “A”.
On to `O=C1CCC(N2Cc3ccc(COC(=O)Nc4ccc(N5CCCCC5)nc4)cc3C2=O)C(=O)N1` (centres unmarked) [Compound 215], for which the GSPT1 degradation entry at GSPT1 is “F (F represents degradation at 0.3 μM (>90%))”. For the same molecule, at IKZF3, the IKZF3 degradation entry is listed as “B (B represents trace degradation at 30 μM (below 20%))”. Besides, the CK1alpha degradation entry on CK1alpha is “C (C represents weak degradation at 30 μM (below 50%))”. Besides, the IKZF1 degradation result on IKZF1 is on record as “A”.
